The results in this text go back to patent US9458110B2, “Phenylpyrazole derivatives as potent ROCK1 and ROCK2 inhibitors” (BRISTOL-MYERS SQUIBB COMPANY, priority 2013, dated 2016).

In one experiment the target is ROCK1 (Homo sapiens (Human), UniProt Q13464). Put plainly: ROCK assay (Caliper LABCHIP peptide phosphorylation), ROCK1.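 Note: Read-out is separation of phosphorylated from unphosphorylated peptide, with kinase activity inhibition computed at every concentration of a dose-response series.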 The settings on record: 5 μM ATP, 1.5 μM peptide substrate. The class given is biochemical.
A further experiment concerns the target ROCK2 (Homo sapiens (Human), UniProt O75116). Put plainly: ROCK assay (Caliper LABCHIP peptide phosphorylation), ROCK2.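 Note: reaction stopped with EDTA, then phosphorylated and unphosphorylated peptide resolved by microfluidic electrophoresis, kinase inhibition computed at each compound concentration in dose-response series, DMSO under 2%.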 The class given is biochemical. The settings on record: 5 μM ATP, 1.5 μM peptide substrate.

Sequence of ROCK1 (Q13464 whole entry, species assumed): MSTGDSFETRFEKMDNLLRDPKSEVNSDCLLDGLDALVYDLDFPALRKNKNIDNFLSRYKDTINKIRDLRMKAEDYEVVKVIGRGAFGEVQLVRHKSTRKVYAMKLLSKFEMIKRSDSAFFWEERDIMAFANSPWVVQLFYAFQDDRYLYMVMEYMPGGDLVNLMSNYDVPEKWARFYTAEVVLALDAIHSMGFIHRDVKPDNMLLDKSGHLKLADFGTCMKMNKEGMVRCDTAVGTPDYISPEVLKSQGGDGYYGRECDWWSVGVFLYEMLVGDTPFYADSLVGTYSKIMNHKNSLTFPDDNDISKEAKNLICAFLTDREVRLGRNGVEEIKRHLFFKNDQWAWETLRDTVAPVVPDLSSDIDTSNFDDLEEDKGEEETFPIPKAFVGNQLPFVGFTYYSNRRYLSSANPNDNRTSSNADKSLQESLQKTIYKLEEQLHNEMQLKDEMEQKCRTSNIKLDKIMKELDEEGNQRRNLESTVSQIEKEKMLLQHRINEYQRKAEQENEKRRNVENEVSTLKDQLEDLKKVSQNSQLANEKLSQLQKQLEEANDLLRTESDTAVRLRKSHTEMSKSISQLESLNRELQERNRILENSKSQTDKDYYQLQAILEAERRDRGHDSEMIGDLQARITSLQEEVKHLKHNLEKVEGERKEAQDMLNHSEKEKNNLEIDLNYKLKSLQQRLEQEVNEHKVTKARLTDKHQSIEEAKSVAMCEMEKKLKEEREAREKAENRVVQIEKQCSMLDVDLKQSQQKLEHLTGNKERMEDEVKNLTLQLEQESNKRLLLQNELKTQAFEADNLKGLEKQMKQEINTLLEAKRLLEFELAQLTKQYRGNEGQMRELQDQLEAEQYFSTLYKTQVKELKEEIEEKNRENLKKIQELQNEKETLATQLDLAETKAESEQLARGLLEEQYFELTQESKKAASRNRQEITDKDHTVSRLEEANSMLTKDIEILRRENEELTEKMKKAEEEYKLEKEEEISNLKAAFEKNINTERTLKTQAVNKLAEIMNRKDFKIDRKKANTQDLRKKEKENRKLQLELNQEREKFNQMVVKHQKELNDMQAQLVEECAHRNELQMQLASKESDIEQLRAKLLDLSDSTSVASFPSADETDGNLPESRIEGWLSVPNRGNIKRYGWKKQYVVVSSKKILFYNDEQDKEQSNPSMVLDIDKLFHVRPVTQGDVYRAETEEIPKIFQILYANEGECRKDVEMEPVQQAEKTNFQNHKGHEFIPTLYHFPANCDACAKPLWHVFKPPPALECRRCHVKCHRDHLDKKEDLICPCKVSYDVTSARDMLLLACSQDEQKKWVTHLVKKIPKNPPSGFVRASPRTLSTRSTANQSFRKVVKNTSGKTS
Sequence of ROCK2 (O75116 whole entry, species assumed): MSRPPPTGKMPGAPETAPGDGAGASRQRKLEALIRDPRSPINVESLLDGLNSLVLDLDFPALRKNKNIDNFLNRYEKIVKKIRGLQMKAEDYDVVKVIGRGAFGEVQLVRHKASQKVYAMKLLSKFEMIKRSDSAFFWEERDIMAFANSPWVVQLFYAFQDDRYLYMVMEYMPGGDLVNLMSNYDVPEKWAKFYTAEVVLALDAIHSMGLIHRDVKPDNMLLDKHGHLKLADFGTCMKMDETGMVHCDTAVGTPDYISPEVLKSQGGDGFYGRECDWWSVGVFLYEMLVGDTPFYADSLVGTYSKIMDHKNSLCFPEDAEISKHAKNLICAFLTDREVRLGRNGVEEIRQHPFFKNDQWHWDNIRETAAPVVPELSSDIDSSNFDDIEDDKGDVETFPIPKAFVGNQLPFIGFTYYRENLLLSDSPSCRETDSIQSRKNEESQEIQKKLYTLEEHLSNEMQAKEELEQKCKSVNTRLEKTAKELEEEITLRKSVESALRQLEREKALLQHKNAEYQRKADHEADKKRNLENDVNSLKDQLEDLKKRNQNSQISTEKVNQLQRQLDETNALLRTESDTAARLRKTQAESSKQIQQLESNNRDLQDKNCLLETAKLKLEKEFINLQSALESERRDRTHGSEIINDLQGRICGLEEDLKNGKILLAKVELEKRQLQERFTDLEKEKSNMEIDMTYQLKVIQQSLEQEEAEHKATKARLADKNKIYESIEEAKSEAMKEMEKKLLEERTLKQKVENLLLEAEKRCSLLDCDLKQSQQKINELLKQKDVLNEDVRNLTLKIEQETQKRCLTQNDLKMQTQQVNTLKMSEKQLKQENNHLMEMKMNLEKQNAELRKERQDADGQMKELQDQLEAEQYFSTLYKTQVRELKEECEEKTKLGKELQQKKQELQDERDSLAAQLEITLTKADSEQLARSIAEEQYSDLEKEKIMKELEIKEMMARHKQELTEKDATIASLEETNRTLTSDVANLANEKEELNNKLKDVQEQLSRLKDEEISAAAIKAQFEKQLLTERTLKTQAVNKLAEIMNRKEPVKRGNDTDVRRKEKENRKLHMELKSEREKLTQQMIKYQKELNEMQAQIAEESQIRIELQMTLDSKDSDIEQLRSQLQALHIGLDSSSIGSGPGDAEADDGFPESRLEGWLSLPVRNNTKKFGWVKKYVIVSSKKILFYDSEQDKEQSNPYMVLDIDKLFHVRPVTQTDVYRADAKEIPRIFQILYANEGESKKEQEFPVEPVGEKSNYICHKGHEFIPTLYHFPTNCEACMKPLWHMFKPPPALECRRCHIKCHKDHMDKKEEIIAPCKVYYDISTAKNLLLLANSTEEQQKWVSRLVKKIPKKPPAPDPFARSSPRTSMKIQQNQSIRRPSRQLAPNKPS

Turning to `COc1cc(C(=O)NC(C)(C)c2ccccc2)ccc1-c1cn[nH]c1` [Example 30, 3-methoxy-N-(2-phenylpropan-2-yl)-4-(1H-pyrazol-4-yl)benzamide], the figures for the IC50 at ROCK1 and at ROCK2 were 214 nM and 129 nM, respectively.
The corresponding values for `COc1ccc(F)c(C(C)NC(=O)c2ccc(-c3cn[nH]c3)c(C(C)O)c2)c1` (stereo not shown) [Example 316, N-[1-(2-fluoro-5-methoxyphenyl)ethyl]-3-(1-hydroxyethyl)-4-(1H-pyrazol-4-yl)benzamide] are 82.2 nM and 10.9 nM.
The corresponding values for `Cc1cc(C(=O)N[C@H](CC(=O)NCC(C)(C)O)c2ccccc2)ccc1-c1cn[nH]c1` [Example 253, (3R)-N-(2-Hydroxy-2-methylpropyl)-3-{[3-methyl-4-(1H-pyrazol-4-yl)phenyl]formamido}-3-phenylpropanamide] are 99 nM and 255 nM.
Regarding `CC(NC(=O)c1ccc(-c2cn[nH]c2)c(C=O)c1)c1ccccc1F` (stereo not shown) [Example 275, N-[1-(2-fluorophenyl)ethyl]-3-formyl-4-(1H-pyrazol-4-yl)benzamide], the results for the IC50 on ROCK1 and against ROCK2 were 983 nM and 1420 nM, respectively.
The corresponding values for `COC(=O)c1cccc(CNC(=O)c2ccc(-c3cn[nH]c3)c(C)c2)c1` [Example 108, methyl 3-({[3-methyl-4-(1H-pyrazol-4-yl)phenyl] formamido}methyl) benzoate] are 13.9 nM and 2.61 nM.
For the compound `COc1cc(C(=O)NCc2cccc(C(=O)Nc3nc4c(s3)CN(C)CC4)c2)ccc1-c1cn[nH]c1` [Example 247, 3-methoxy-N-{[3-({5-methyl-4H, 5H,6H,7H-[1,3]thiazolo [5,4-c]pyridin-2-yl}carbamoyl)phenyl]methyl}-4-(1H-pyrazol-4-yl)benzamide], the results for the half-inhibitory concentration (IC50) on ROCK1 and against ROCK2 were 0.39 nM and 0.33 nM, respectively.
The like results for `COc1cc(C(=O)NCc2c(F)cccc2F)ccc1-c1cn[nH]c1` [Example 98, N-[(2,6-difluorophenyl)methyl]-3-methoxy-4-(1H-pyrazol-4-yl)benzamide] were, in that order, 17.8 nM and 2.95 nM.
For the compound `COc1cc(C(=O)N[C@H](CO)[C@H](O)c2ccccc2)ccc1-c1cn[nH]c1` [Example 112, N-[(1R,2R)-1,3-dihydroxy-1-phenylpropan-2-yl]-3-methoxy-4-(1H-pyrazol-4-yl)benzamide], the values for the IC50 at ROCK1 and against ROCK2 were 23.9 nM and 2.72 nM, respectively.
Consider `COc1cc(C(=O)N[C@@H](C)[C@H](O)c2ccccc2)ccc1-c1cn[nH]c1` [Example 40, N-((1R,2S)-1-hydroxy-1-phenylpropan-2-yl)-3-methoxy-4-(1H-pyrazol-4-yl)benzamide], for which the half-maximal inhibitory concentration (IC50) was determined as 337 nM against ROCK1 and 224 nM against ROCK2.
In the case of `CCNC[C@@H](NC(=O)c1ccc(-c2cn[nH]c2)c(OC)c1)c1c(F)cccc1F` [Example 265, N-[(1S)-1-(2,6-Difluorophenyl)-2-(ethylamino)ethyl]-3-methoxy-4-(1H-pyrazol-4-yl)benzamide], the IC50 on ROCK1 stood at 2.26 nM; at ROCK2, 1.29 nM.
On to `COc1cc(C(=O)NCC(C#N)c2ccccc2)ccc1-c1cn[nH]c1` (stereo not shown) [Example 118, N-(2-cyano-2-phenylethyl)-3-methoxy-4-(1H-pyrazol-4-yl)benzamide], for which the IC50 on ROCK1 amounted to 38.7 nM; on ROCK2 it was 27.7 nM.
With `COc1cc(-c2cn[nH]c2)ccc1C(=O)NC(c1ccccc1F)C(C)(C)O` (stereo not shown) [Example 219, N-[1-(2-fluorophenyl)-2-hydroxy-2-methylpropyl]-2-methoxy-4-(1H-pyrazol-4-yl)benzamide], the IC50 came out at 585 nM on ROCK1 and 201 nM at ROCK2.
`CCOc1cc(C(=O)N[C@H](CO)c2ccccc2)ccc1-c1cn[nH]c1` [Example 192, 3-ethoxy-N-[(1S)-2-hydroxy-1-phenylethyl]-4-(1H-pyrazol-4-yl)benzamide]: the 50% inhibitory concentration (IC50) against ROCK1 was 50.8 nM; against ROCK2, 11.4 nM.
For `COc1cc(C(=O)NC(CCO)c2ccccc2)ccc1-c1cn[nH]c1` (stereo not shown) [Example 145, N-(3-hydroxy-1-phenylpropyl)-3-methoxy-4-(1H-pyrazol-4-yl)benzamide], the IC50 was 301 nM on ROCK1 and 282 nM against ROCK2.
The corresponding values for `COc1cc(C(=O)N[C@H](C)c2ccccc2)ccc1-c1cn[nH]c1` [Example 72, (R)-3-methoxy-N-(1-phenylethyl)-4-(1H-pyrazol-4-yl)benzamide] are 5.91 nM and 1.48 nM.
The like results for `COc1cccc([C@@H](C)NC(=O)c2ccc(-c3c[nH]nc3CO)cc2OC)c1` [Example 306, (R)-4-(3-(Hydroxymethyl)-1H-pyrazol-4-yl)-2-methoxy-N-(1-(3-methoxyphenyl)ethyl)benzamide] were, in that order, 63.8 nM and 43.5 nM.
For `O=C(N[C@H](CO)c1c(F)cccc1F)c1ccc(-c2cn[nH]c2)c(C(F)(F)F)c1` [Example 202, N-[(1S)-1-(2,6-difluorophenyl)-2-hydroxyethyl]-4-(1H-pyrazol-4-yl)-3-(trifluoromethyl) benzamide], the IC50 is 193 nM against ROCK1 and 55.7 nM against ROCK2.
The like results for `COc1cc(-c2cn[nH]c2)ccc1C(=O)N[C@H](CO)Cc1ccccc1` [Example 204, N-[(2S)-1-hydroxy-3-phenylpropan-2-yl]-2-methoxy-4-(1H-pyrazol-4-yl)benzamide] were, in that order, 9.8 nM and 15.2 nM.
The corresponding values for `CC(=O)NC[C@@H](NC(=O)c1ccc(-c2cn[nH]c2)c(C)c1)c1ccccc1` [Example 255, N-[(2S)-2-{[3-Methyl-4-(1H-pyrazol-4-yl)phenyl]formamido}-2-phenylethyl]acetamide] are 97.2 nM and 10.9 nM.
For the compound `COc1cccc(CNC(=O)c2ccc(-c3cn[nH]c3)c(C)c2)c1` [Example 58, N-(3-Methoxybenzyl)-3-methyl-4-(1H-pyrazol-4-yl)benzamide], the IC50 against ROCK1 was 16.9 nM; against ROCK2, 2.28 nM.
Regarding `COc1ccc(F)c(C(C)NC(=O)c2ccc(-c3cn[nH]c3)c(OC)c2)c1` (stereo not shown) [Example 139, N-[1-(2-fluoro-5-methoxy-phenyl)ethyl]-3-methoxy-4-(1H-pyrazol-4-yl)benzamide], the results for the IC50 against ROCK1 and against ROCK2 were 172 nM and 47.2 nM, respectively.
The like results for `COc1ccccc1CCNC(=O)c1ccc(-c2cn[nH]c2)c(OC)c1` [Example 126, 3-methoxy-N-[2-(2-methoxyphenyl)ethyl]-4-(1H-pyrazol-4-yl)benzamide] were, in that order, 155 nM and 1350 nM.
The like results for `COc1cc(C(=O)NC[C@H](C)c2ccccc2)ccc1-c1cn[nH]c1` [Example 117, 3-methoxy-N-[(2R)-2-phenylpropyl]-4-(1H-pyrazol-4-yl)benzamide] were, in that order, 50.5 nM and 30.2 nM.
As for `COc1cc(-c2cn[nH]c2)ccc1C(=O)NC(C)c1c(F)cccc1Cl` (stereo not shown) [Example 223, N-[1-(2-chloro-6-fluorophenyl)ethyl]-2-methoxy-4-(1H-pyrazol-4-yl)benzamide], the half-inhibitory concentration (IC50) against ROCK1 turned out to be 59.6 nM; against ROCK2 it was 14.7 nM.
For the compound `COc1cc(C(=O)NCc2c(F)cccc2Cl)ccc1-c1cn[nH]c1` [Example 105, N-[(2-chloro-6-fluorophenyl)methyl]-3-methoxy-4-(1H-pyrazol-4-yl)benzamide], the IC50 against ROCK1 was 11.7 nM; at ROCK2, 3.59 nM.
The like results for `CC(C)(O)COc1cc(C(=O)N[C@H](CN)c2ccccc2)ccc1-c1cn[nH]c1` [Example 257, N-[(15)-2-amino-1-phenylethyl]-3-(2-hydroxy-2-methylpropoxy)-4-(1H-pyrazol-4-yl)benzamide] were, in that order, 85.1 nM and 52.8 nM.
Consider `COc1cccc(CNC(=O)c2ccc(-c3cn[nH]c3)cc2N)c1` [Example 214, 2-amino-N-[(3-methoxyphenyl)methyl]-4-(1H-pyrazol-4-yl)benzamide], for which the results for the half-inhibitory concentration (IC50) against ROCK1 and on ROCK2 were 131 nM and 32.3 nM, respectively.
The like results for `CCNC(=O)c1cccc(CNC(=O)c2ccc(-c3cn[nH]c3)c(C)c2)c1` [Example 240, N-{[3-(ethylcarbamoyl)phenyl]methyl}-3-methyl-4-(1H-pyrazol-4-yl)benzamide] were, in that order, 11.8 nM and 2.61 nM.
With `Cc1cc(C(=O)NCc2ccc(F)cc2Cl)ccc1-c1cn[nH]c1` [Example 149, N-[(2-chloro-4-fluorophenyl)methyl]-3-methyl-4-(1H-pyrazol-4-yl)benzamide], the figures for the IC50 on ROCK1 and on ROCK2 were 16.9 nM and 11.6 nM, respectively.
`C[C@@H](NC(=O)c1ccc(-c2cn[nH]c2)c(N(C)C)c1)c1ccc(F)cc1` [Example 296, (R)-3-(Dimethylamino)-N-(1-(4-fluorophenyl)ethyl)-4-(1H-pyrazol-4-yl)benzamide]: the IC50 against ROCK1 was 145 nM; against ROCK2 it was 54.6 nM.
The like results for `COc1cc(-c2cn[nH]c2)ccc1C(=O)NCc1cccc(C(=O)NC2CCN(C)CC2)c1` [Example 249, 2-methoxy-N-({3-[(1-methylpiperidin-4-yl)carbamoyl]phenyl}methyl)-4-(1H-pyrazol-4-yl)benzamide] were, in that order, 1.24 nM and 0.36 nM.
The corresponding values for `COc1cc(-c2cn[nH]c2)ccc1C(=O)NC(C)c1c(F)cccc1F` (stereo not shown) [Example 227, N-[1-(2,6-difluorophenyl)ethyl]-2-methoxy-4-(1H-pyrazol-4-yl)benzamide] are > 2000 nM and 1200 nM.
The like results for `COc1cc(C(=O)N[C@H](C)c2ccccc2Cl)ccc1-c1cn[nH]c1` [Example 43, (R)-N-(1-(2-chlorophenyl)ethyl)-3-methoxy-4-(1H-pyrazol-4-yl) benzamide] were, in that order, 40.8 nM and 1.31 nM.
Turning to `COc1cc(C(=O)NC(C)c2cccc3ccccc23)ccc1-c1cn[nH]c1` (stereo in doubt) [Example 172, 3-methoxy-N-[(1R)-1-(naphthalen-1-yl)ethyl]-4-(1H-pyrazol-4-yl)benzamide], the half-maximal inhibitory concentration (IC50) on ROCK1 was 6.68 nM; at ROCK2, 2.32 nM.
The like results for `Cc1cc(C(=O)NC(C)c2cccc(O)n2)ccc1-c1cn[nH]c1` (stereo not shown) [Example 168, N-[1-(6-hydroxypyridin-2-yl)ethyl]-3-methyl-4-(1H-pyrazol-4-yl)benzamide] were, in that order, 130 nM and 46.7 nM.

As a reminder, the IC50 is the concentration needed to halve the response being measured.
